# Test results taken from ChEMBL document CHEMBL1156972, “Discovery of 2-ureidophenyltriazines bearing bridged morpholines as potent and selective ATP-competitive mTOR inhibitors” (Bioorg Med Chem Lett, 2010).
# Calls of active or inactive are those of the source. The calls are words filed in the database; no cut-off is given here.
# Experiments:
# [1] = target: Serine/threonine-protein kinase mTOR (Rattus norvegicus, UniProt P42346); assay: Inhibition of rat brain mTOR assessed as p70S6K-GST protein phosphorylation after 30 mins by ELISA
# LNCaP = assay: Antiproliferative activity against human LNCAP cells after 3 days by MTS assay; assay type: functional, cell-based; conditions: 72 h
# [2] = Selectivity ratio of IC50 for PI3K to IC50 for rat brain mTOR
# [3] = Inhibition of PI3K assessed as PIP3 level after 20 mins by HTRF assay
# U-87MG ATCC [4] = assay: Antitumor activity against human U87MG cells xenografted in nude mouse assessed as reduction in tumor volume at 5 to 15 mg/kg, po QD for 5 days measured up to 10 days; assay type: functional, organism-based
# [5] = Antitumor activity against human U87MG cells xenografted in nude mouse assessed as reduction in tumor volume at 10 mg/kg, po QD for 5 days measured after 8 days relative to control; assay type: functional, U-87MG ATCC; parameters: scale not given: the % may be the effect or the level left
# MDA361 = assay: Inhibition of PI3K in human MDA361 cells assessed as suppression of P-AKT T308 level at 0.0125 to 10 uM by immunoblotting; assay type: cell-based
# Mus musculus [6] = assay: Inhibition of mTOR in human MDA361 cells xenografted in nude mouse assessed as suppression of TORC1 level at 25 mg/kg, iv after 8 hrs by immunoblotting; assay type: functional, organism-based; parameters: dose 25 mg/kg
# Mus musculus [7] = assay: Inhibition of mTOR in human MDA361 cells xenografted in nude mouse assessed as suppression of TORC2 level at 25 mg/kg, iv after 8 hrs by immunoblotting; assay type: functional, organism-based; parameters: dose 25 mg/kg
# [8] = Antitumor activity against human U87MG cells xenografted in nude mouse assessed as reduction in tumor volume at 5 mg/kg, iv QD for 5 days measured after 9 days relative to control; assay type: functional, U-87MG ATCC; parameters: scale not given: the % may be the effect or the level left
# Mus musculus [9] = assay: Inhibition of mTOR in human MDA361 cells xenografted in nude mouse assessed as suppression of TORC1 level at 10 mg/kg, iv after 8 hrs by immunoblotting; assay type: functional, organism-based; parameters: dose 10 mg/kg
# U-87MG ATCC [10] = assay: Antitumor activity against human U87MG cells xenografted in nude mouse assessed as reduction in tumor volume at 12.5 to 25 mg/kg, po QD for 5 days measured after 9 days; assay type: functional, organism-based
# Mus musculus [11] = assay: Inhibition of mTOR in human MDA361 cells xenografted in nude mouse assessed as suppression of TORC2 level at 10 mg/kg, iv after 8 hrs by immunoblotting; assay type: functional, organism-based; parameters: dose 10 mg/kg
# Mus musculus [12] = assay: Inhibition of PI3K signalling in human MDA361 cells xenografted in nude mouse assessed as suppression of PI3K/PDK1 level at 10 mg/kg, iv after 8 hrs by immunoblotting; assay type: functional, organism-based; parameters: dose 10 mg/kg
# Mus musculus [13] = assay: Inhibition of PI3K signalling in human MDA361 cells xenografted in nude mouse assessed as suppression of PI3K/PDK1 level at 25 mg/kg, iv after 8 hrs by immunoblotting; assay type: functional, organism-based; parameters: dose 25 mg/kg
SMILES,IC50 [1] [nM],IC50 (LNCaP) [nM],Ratio IC50 [2],IC50 [3] [nM],other results
CN1CCN(c2ccc(NC(=O)Nc3ccc(-c4nc(N5CC6CCC(C5)O6)nc(N5C6CCC5COC6)n4)cc3)cc2)CC1,2,< 0.8,75,150,
CNC(=O)Nc1ccc(-c2nc(N3CC4CCC(C3)O4)nc(N3CC4CCC(C3)O4)n2)cc1,2.5,190,272,680,
O=C(Nc1ccc(-c2nc(N3CC4CCC(C3)O4)nc(N3CC4CCC(C3)O4)n2)cc1)NC1CC1,2.6,90,802,2120,
CN1CCN(c2ccc(NC(=O)Nc3ccc(-c4nc(N5CC6CCC(C5)O6)nc(N5CC6CCC(C5)O6)n4)cc3)cc2)CC1,1.7,2.3,51,87,Activity (U-87MG ATCC [4]): Active; Activity [5]: 44%
FC(F)c1nc2ccccc2n1-c1nc(N2CC3CCC(C2)O3)nc(N2CC3CCC(C2)O3)n1,44,680,2.8,124,
FC(F)c1nc2ccccc2n1-c1nc(N2CCOCC2)nc(N2CC3CCC(C2)O3)n1,60,180,0.41,24,
CCNC(=O)Nc1ccc(-c2nc(N3CC4CCC(C3)O4)nc(N3CC4CCC(C3)O4)n2)cc1,2.8,180,961,2690,
CN1CCN(c2ccc(NC(=O)Nc3ccc(-c4nc(N5C[C@@H]6C[C@H]5CO6)nc(N5C[C@@H]6C[C@H]5CO6)n4)cc3)cc2)CC1,35,,98,3440,
FC(F)c1nc2ccccc2n1-c1nc(N2CCOCC2)nc(N2CCOCC2)n1 [ZSTK-474],45,210,,,
O=C(Nc1ccncc1)Nc1ccc(-c2nc(N3CC4CCC(C3)O4)nc(N3CC4CCC(C3)O4)n2)cc1,0.5,45,282,142,
CN1CCN(c2ccc(NC(=O)Nc3ccc(-c4nc(N5C[C@H]6C[C@@H]5CO6)nc(N5C[C@H]6C[C@@H]5CO6)n4)cc3)cc2)CC1,130,550,14,1820,
CN1CCN(c2ccc(NC(=O)Nc3ccc(-c4nc(N5C6CCC5COC6)nc(N5C6CCC5COC6)n4)cc3)cc2)CC1,,,,,inhibition (MDA361): Active; inhibition (Mus musculus [6]): Active; inhibition (Mus musculus [7]): Active; Activity [8]: 31%; inhibition (Mus musculus [9]): Active; Activity (U-87MG ATCC [10]): Active; inhibition (Mus musculus [11]): Active; inhibition (Mus musculus [12]): inactive; inhibition (Mus musculus [13]): Active
